From ChEMBL document CHEMBL5096147, “Glycogen Synthase Kinase 3β: A New Gold Rush in Anti-Alzheimer's Disease Multitarget Drug Discovery?” (J Med Chem, 2021) come the findings set out here.

One series has as its target Adenosine kinase (Homo sapiens, UniProt P55263). In words: Inhibition of human wild type AK expressed in Escherichia coli using [2,8- 3H]-Ado and ATP as substrate by radiometric analysis.
Series [1] deals with T1, Glycogen synthase kinase-3 beta (Homo sapiens, UniProt P49841).
Description: Inhibition of GSK-3beta (unknown origin)
The next series addresses Beta-secretase 1 (Homo sapiens, UniProt P56817). In words: Inhibition of BACE-1 (unknown origin) using M-240 (methoxycoumarin-Ser-Glu-Val-Asn-Leu-Asp-Ala-Glu-Phe-Lys-dinitrophenyl) peptide as substrate preincubated for 60 mins followed by substrate addition and measured after 15 mins by fluorescence based analysis.
The target of series [2] is T1, Glycogen synthase kinase-3 beta. Kind of series: Inhibition of recombinant human GSK-3beta incubated for 30 mins using prephosphorylated polypeptide as substrate in presence of ATP by Kinase-Glo reagent based luminescent assay. (Kinase-Glo measures the ATP left after a reaction by luminescence.)
Series [3] is described as follows: Kinetic aqueous solubility of the compound in PBS buffer at pH 7.4 at 250 uM and measured after 24 hrs by UPLC/MS analysis. Format: physicochemical. As to conditions: read-out: Kinetic_solubility.
Series [4] is described as follows: Cmax in CD-1 mouse plasma at 10 mg/kg, po and measured after 30 mins by LC-MS/MS analysis. Format: ADME, organism-based. On the set-up: dose 10 mg/kg, time 30 min, route po.
Series [5] can be described thus: Cmax in CD-1 mouse brain at 10 mg/kg, po and measured after 30 mins by LC-MS/MS analysis. More on the design: dose 10 mg/kg, time 30 min, route po. Format: ADME, organism-based.

T1 sequence (P49841 whole entry): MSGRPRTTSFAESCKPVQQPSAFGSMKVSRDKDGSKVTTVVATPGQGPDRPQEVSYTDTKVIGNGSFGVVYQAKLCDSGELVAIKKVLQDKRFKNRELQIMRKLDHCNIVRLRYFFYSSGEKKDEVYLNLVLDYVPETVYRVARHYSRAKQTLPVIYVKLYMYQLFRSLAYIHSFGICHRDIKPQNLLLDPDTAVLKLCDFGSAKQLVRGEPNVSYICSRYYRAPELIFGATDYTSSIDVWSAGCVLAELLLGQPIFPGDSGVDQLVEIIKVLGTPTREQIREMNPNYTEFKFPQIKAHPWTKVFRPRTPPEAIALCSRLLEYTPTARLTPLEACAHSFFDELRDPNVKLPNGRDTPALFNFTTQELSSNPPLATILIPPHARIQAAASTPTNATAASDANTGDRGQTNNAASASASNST
Sequence of Adenosine kinase (P55263 whole entry): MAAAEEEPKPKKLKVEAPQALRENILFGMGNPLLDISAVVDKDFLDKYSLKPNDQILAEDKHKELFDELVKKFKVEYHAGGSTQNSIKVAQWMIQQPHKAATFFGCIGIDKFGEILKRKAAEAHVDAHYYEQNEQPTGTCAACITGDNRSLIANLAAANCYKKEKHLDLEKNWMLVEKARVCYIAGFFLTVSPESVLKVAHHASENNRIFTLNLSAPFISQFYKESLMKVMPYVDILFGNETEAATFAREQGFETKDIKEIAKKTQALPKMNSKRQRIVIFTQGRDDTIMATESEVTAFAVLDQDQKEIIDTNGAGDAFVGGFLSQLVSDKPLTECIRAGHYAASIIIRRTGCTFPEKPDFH
Sequence of Beta-secretase 1 (P56817 whole entry): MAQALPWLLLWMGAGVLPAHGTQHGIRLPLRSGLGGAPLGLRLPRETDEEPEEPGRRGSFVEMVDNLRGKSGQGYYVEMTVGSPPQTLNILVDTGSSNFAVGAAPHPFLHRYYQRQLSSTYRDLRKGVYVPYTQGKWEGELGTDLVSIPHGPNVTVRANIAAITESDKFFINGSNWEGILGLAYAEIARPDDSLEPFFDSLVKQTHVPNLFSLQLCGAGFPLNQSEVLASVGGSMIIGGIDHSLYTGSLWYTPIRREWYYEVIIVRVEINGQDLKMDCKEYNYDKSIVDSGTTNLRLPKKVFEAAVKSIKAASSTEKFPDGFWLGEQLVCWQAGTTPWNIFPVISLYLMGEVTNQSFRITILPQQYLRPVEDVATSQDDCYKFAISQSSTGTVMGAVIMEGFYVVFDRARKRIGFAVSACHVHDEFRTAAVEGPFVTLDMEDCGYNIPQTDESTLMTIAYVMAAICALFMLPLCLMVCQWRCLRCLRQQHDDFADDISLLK

In general, IC50 refers to the midpoint of a concentration-inhibition curve. On Adenosine kinase, `CCC1(c2ccc(COc3ccccc3)cc2)Oc2ccccc2-n2cccc2C1=O` (configuration not stated) displayed an IC50 of 1.2 µM.
`COc1cc2c(Br)cc3c(c2cc1OC)C(=O)NC3=O` registered an IC50 in series [1] of 0.304 µM.
A word on the Cmax: it is the highest concentration seen after dosing. Take `NC1=NC(c2ccc(F)cc2)CC(=O)N1` (configuration not stated): the IC50 is 18 µM against Beta-secretase 1 and 14.7 µM in series [2]. Further, the solubility kinetic at 24 h, 250 µM in series [3] was over 250 µM. Also, the Cmax turned out to be 665 ng/mL in series [4] and 0.613 ng/mL in series [5].
